Results from the supplement of paper PMC10307832.

How the values were obtained:
Assay in all cases: relative viability (nuclei count vs DMSO), 5 days (fraction); higher = more cells survive
[1] = compound: CN1CCC(CNc2ccc3ncc(-c4cccc(OC(F)(F)F)c4)n3n2)CC1 [SGI-1776] + C[C@]1(O)C[C@@H](c2nc(-c3ccc4ccc(-c5ccccc5)nc4c3)c3c(N)nccn32)C1 [Linsitinib] (partner 1 µM)
Procedure, shortened: (§1)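 Relative viability was taken as the ratio of nuclei in treated wells to nuclei in vehicle wells. Lung cancer cell lines in 1536-well plates received compounds by pin tool one day after seeding, either one drug alone or a fixed anchor-drug dose plus five library-drug doses (not always all listed) in √10 steps. Nuclei were counted on 4× images after 5 days of treatment, and values are medians of duplicate plates.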

[2] = compound: CN1CCC(CNc2ccc3ncc(-c4cccc(OC(F)(F)F)c4)n3n2)CC1 [SGI-1776] + CS(=O)(=O)N1CCN(Cc2cc3nc(-c4cccc5[nH]ncc45)nc(N4CCOCC4)c3s2)CC1 [Pictilisib] (partner 1 µM)
Procedure, shortened: as §1

[3] = compound: Nc1ccccc1NC(=O)c1ccc(CNC(=O)OCc2cccnc2)cc1 [Entinostat] + CC(=O)c1c(C)c2cnc(Nc3ccc(N4CCNCC4)cn3)nc2n(C2CCCC2)c1=O [Palbociclib] (partner 0.5 µM)
Procedure, shortened: as §1

[4] = compound: Nc1ccccc1NC(=O)c1ccc(CNC(=O)OCc2cccnc2)cc1 [Entinostat] + Nc1nc2[nH]cc(CCc3ccc(C(=O)N[C@@H](CCC(=O)O)C(=O)O)cc3)c2c(=O)[nH]1 [Pemetrexed] (partner 0.2 µM)
Procedure, shortened: as §1

| Cell Line | relative viability ([1]; first compound 0.08 µM) | relative viability ([1]; first compound 0.8 µM) | relative viability ([1]; first compound 2.53 µM) | relative viability ([1]; first compound 8 µM) | relative viability ([2]; first compound 0.08 µM) | relative viability ([2]; first compound 0.8 µM) | relative viability ([2]; first compound 2.53 µM) | relative viability ([2]; first compound 8 µM) | relative viability ([3]; first compound 0.02 µM) | relative viability ([3]; first compound 0.06325 µM) | relative viability ([3]; first compound 0.2 µM) | relative viability ([3]; first compound 0.6325 µM) | relative viability ([3]; first compound 2 µM) | relative viability ([4]; first compound 0.02 µM) | relative viability ([4]; first compound 0.06325 µM) | relative viability ([4]; first compound 0.2 µM) | relative viability ([4]; first compound 0.6325 µM) | relative viability ([4]; first compound 2 µM) |
| --- | --- | --- | --- | --- | --- | --- | --- | --- | --- | --- | --- | --- | --- | --- | --- | --- | --- | --- |
| NCI-H1703 | 0.662 | 0.979 | 0.433 | 0.13 | 0.242 | 0.22 | 0.251 | 0.181 |  |  |  |  |  |  |  |  |  |  |
| NCI-H1944 | 1.15 | 1.31 | 1.21 | 1.05 | 0.355 | 0.334 | 0.343 | 0.324 | 0.301 | 0.286 | 0.234 | 0.223 | 0.176 | 0.498 | 0.576 | 0.465 | 0.244 | 0.22 |
| EBC-1 | 0.969 | 0.85 | 1.02 | 0.675 | 0.436 | 0.374 | 0.299 | 0.15 |  |  |  |  |  |  |  |  |  |  |
| ABC-1 | 0.745 | 0.895 | 0.883 | 0.742 | 0.675 | 0.666 | 0.745 | 0.66 | 0.591 | 0.788 | 0.61 | 0.658 | 0.41 |  |  |  |  |  |
| NCI-H596 | 1.05 | 0.999 | 0.981 | 0.943 | 0.43 | 0.383 | 0.365 | 0.298 |  |  |  |  |  | 0.499 | 0.514 | 0.528 | 0.439 | 0.446 |
| NCI-H1650 |  |  |  |  | 0.586 | 0.542 | 0.355 | 0.146 | 0.352 | 0.299 | 0.334 | 0.283 | 0.162 | 0.389 | 0.455 | 0.44 | 0.359 | 0.241 |
| NCI-H1648 |  |  |  |  |  |  |  |  | 0.297 | 0.25 | 0.259 | 0.247 | 0.258 | 0.736 | 0.685 | 0.772 | 0.38 | 0.407 |
| A549 | 0.672 | 0.574 | 0.518 | 0.48 | 0.566 | 0.513 | 0.392 | 0.267 |  |  |  |  |  |  |  |  |  |  |
| NCI-H1299 | 1.02 | 0.972 | 0.966 | 0.921 | 0.821 | 0.832 | 0.596 | 0.505 |  |  |  |  |  |  |  |  |  |  |
| NCI-H2170 |  |  |  |  | 0.297 | 0.281 | 0.284 | 0.238 | 0.387 | 0.362 | 0.314 | 0.252 | 0.216 | 0.255 | 0.283 | 0.273 | 0.228 | 0.229 |
| NCI-H727 | 0.254 | 0.26 | 0.346 | 0.241 | 0.398 | 0.626 | 0.376 | 0.285 | 0.596 | 0.702 | 0.628 | 0.657 | 0.649 |  |  |  |  |  |
| NCI-H522 |  |  |  |  |  |  |  |  | 1.01 | 1.15 | 1.13 | 1.01 | 0.97 | 0.848 | 1.21 | 1.12 | 1.04 | 0.774 |
| Calu-6 | 1.07 | 0.986 | 0.997 | 0.818 | 0.974 | 0.911 | 0.808 | 0.482 |  |  |  |  |  |  |  |  |  |  |
| ChaGo-K-1 |  |  |  |  | 0.699 | 0.844 | 0.49 | 0.415 | 0.976 | 0.931 | 0.989 | 0.852 | 0.75 | 0.269 | 0.262 | 0.271 | 0.264 | 0.259 |
